These compounds were tested against T1, DCAF1 WD40 domain (residues 1077-1390) (Homo sapiens, UniProt Q9Y4B6) (assay: DCAF1 binding assay by SPR (Biacore 8K+), DCAF1-3 KD). Details: 25 °C, read-out: DCAF1-3 SPR (KD).
T1 construct: DCAF1 WD40 domain (residues 1077-1390)
T1 sequence (Q9Y4B6 1077-1390): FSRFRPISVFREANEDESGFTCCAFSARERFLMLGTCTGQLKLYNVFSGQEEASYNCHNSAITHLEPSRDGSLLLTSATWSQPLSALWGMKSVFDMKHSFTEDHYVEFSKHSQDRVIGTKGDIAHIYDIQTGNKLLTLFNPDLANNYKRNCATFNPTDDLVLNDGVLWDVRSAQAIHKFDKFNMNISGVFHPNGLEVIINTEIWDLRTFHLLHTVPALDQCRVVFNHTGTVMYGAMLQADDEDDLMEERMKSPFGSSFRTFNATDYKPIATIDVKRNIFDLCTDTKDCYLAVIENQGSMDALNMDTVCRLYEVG

| SMILES | Kd [µM] |
| --- | --- |
| CCCCCCC[C@@H]1CCCN(c2ccnc(N3CC[C@@H]4[C@H]3CCCN4c3cccc(F)c3)c2)C1 [I-726] | > 200 |
| CCCCCCC[C@H]1CCCN(c2ccnc(N3CC[C@@H]4[C@H]3CCCN4c3cccc(F)c3)c2)C1 [I-727] | > 200 |
| CCCCCCC[C@@H]1CCCN(c2ccnc(N3CC[C@H]4[C@@H]3CCCN4c3cccc(F)c3)c2)C1 [I-728] | 10 to 100 |
| CCCCCCC[C@H]1CCCN(c2ccnc(N3CC[C@H]4[C@@H]3CCCN4c3cccc(F)c3)c2)C1 [I-729] | 10 to 100 |
| Oc1c(CN2CCCCC2)cccc1[C@@H]1CCCN(c2cccc(F)c2)C1 [I-730] | > 200 |
| Oc1c(CN2CCCCC2)cccc1[C@H]1CCCN(c2cccc(F)c2)C1 [I-731] | > 200 |
| Nc1ccc(N2CCC[C@@H]3[C@H]2CCN3c2cc(N3CC4CC(C4)C3)ccn2)cc1F [I-733] | < 10 |
| Nc1ccc(N2CCC[C@H]3[C@@H]2CCN3c2cc(N3CC4CC(C4)C3)ccn2)cc1F [I-734] | 10 to 100 |
| Fc1cccc(N2CCNC(Cc3cc(N4CCCCC4)ccn3)C2)c1 (stereo not shown) [I-743] | > 200 |
| NCCCCCCCCCCCCCCCCCCCCC1CCN(c2ccnc(N3CC[C@@H]4[C@H]3CCCN4c3cccc(F)c3)c2)CC1 [I-745] | > 200 |
| CC(=O)Nc1ccc(N2CCC[C@@H]3[C@H]2CCN3c2cc(N3CCCCC3)ccn2)cc1F [I-746] | 10 to 100 |
| CC(=O)Nc1ccc(N2CCC[C@H]3[C@@H]2CCN3c2cc(N3CCCCC3)ccn2)cc1F [I-747] | > 200 |
| c1cc(N2CCCCC2)cc(N[C@H]2CCC[C@H](C3CCCCC3)C2)n1 [I-750] | > 200 |
| c1cc(N2CCCCC2)cc(N[C@@H]2CCC[C@H](C3CCCCC3)C2)n1 [I-751] | > 200 |
| c1cc(N2CCCCC2)cc(N[C@@H]2CCC[C@@H](C3CCCCC3)C2)n1 [I-752] | 10 to 100 |
| c1ccc([C@@H]2CCC[C@H](Nc3cc(N4CCCCC4)ccn3)C2)cc1 [I-753] | 10 to 100 |
| c1ccc([C@H]2CCC[C@@H](Nc3cc(N4CCCCC4)ccn3)C2)cc1 [I-754] | 10 to 100 |
| c1ccc([C@H]2CCC[C@H](Nc3cc(N4CCCCC4)ccn3)C2)cc1 [I-755] | < 10 |
| C=CC(=O)NCCCCC1CCN(c2ccnc(N[C@@H]3CCCN(c4cccc(F)c4)C3)c2)CC1 [I-756] | 10 to 100 |
| OCc1cnc2ccc(N3CCC[C@@H](Nc4cc(N5CCCCC5)ccn4)C3)nn12 [I-760] | > 200 |
| O=CNc1ccc(N2CCC[C@@H]3[C@H]2CCN3c2cc(N3CCCCC3)ccn2)cc1F [I-761] | > 200 |

| SMILES | Kd [µM] |
| --- | --- |
| O=CNc1ccc(N2CCC[C@H]3[C@@H]2CCN3c2cc(N3CCCCC3)ccn2)cc1F [I-762] | > 200 |
| Cc1cn2cc(N3CCC[C@@H](Nc4cc(N5CCOCC5)ccn4)C3)ccc2n1 [I-763] | 10 to 100 |
| Cc1cc2nccn2cc1N1CCC[C@@H](Nc2cc(N3CCOCC3)ccn2)C1 [I-765] | > 200 |
| CCOC(=O)Cc1ccncc1N1CCC[C@@H](Nc2cc(N3CCOCC3)ccn2)C1 [I-766] | 10 to 100 |
| CS(=O)(=O)CCC(=O)N1CCC[C@@H](Nc2cc(N3CCOCC3)ccn2)C1 [I-767] | > 200 |
| CS(=O)(=O)CCCC(=O)N1CCC[C@@H](Nc2cc(N3CCOCC3)ccn2)C1 [I-768] | > 200 |
| NC(=O)c1ccc(N2CCC[C@@H](Nc3cc(N4CCOCC4)ccn3)C2)cc1 [I-769] | > 200 |
| N#Cc1ccccc1N1CCC[C@@H](Nc2cc(N3CCOCC3)ccn2)C1 [I-770] | 10 to 100 |
| N#Cc1cccc(N2CCC[C@@H](Nc3cc(N4CCOCC4)ccn3)C2)c1 [I-771] | > 200 |
| O[C@@H](c1cccc(N2CCC[C@@H](Nc3cc(N4CCOCC4)ccn3)C2)c1)C(F)(F)F [I-772] | 10 to 100 |
| Cn1cncc1N1CCC[C@@H](Nc2cc(N3CCOCC3)ccn2)C1 [I-773] | 10 to 100 |
| N#Cc1ccc(N2CCC[C@@H](Nc3cc(N4CCOCC4)ccn3)C2)cc1 [I-774] | > 200 |
| NC(=O)Cc1cccc(N2CCC[C@@H](Nc3cc(N4CCOCC4)ccn3)C2)c1 [I-776] | > 200 |
| NC(=O)CCc1cccc(N2CCC[C@@H](Nc3cc(N4CCOCC4)ccn3)C2)c1 [I-777] | 10 to 100 |
| O=C1NCCc2c1cccc2N1CCC[C@@H](Nc2cc(N3CCOCC3)ccn2)C1 [I-778] | > 200 |
| COC(=O)c1cc(N2CCC[C@@H](Nc3cc(N4CCOCC4)ccn3)C2)cc2c1OCO2 [I-779] | > 200 |
| Oc1ccc2nc(N3CCC[C@@H](Nc4cc(N5CCOCC5)ccn4)C3)ccc2c1 [I-780] | 10 to 100 |
| COC(=O)c1nc(N2CCC[C@@H](Nc3cc(N4CCOCC4)ccn3)C2)ccc1C [I-781] | 10 to 100 |
| CCOC(=O)Cc1ccc(N2CCC[C@@H](Nc3cc(N4CCOCC4)ccn3)C2)cn1 [I-782] | > 200 |
| CN(C)C(=O)c1cccnc1N1CCC[C@@H](Nc2cc(N3CCOCC3)ccn2)C1 [I-784] | > 200 |
| c1cc(N2CCOCC2)cc(N[C@@H]2CCCN(c3ccc(CN4CCOCC4)cn3)C2)n1 [I-786] | 10 to 100 |

The remaining lines, values ahead:

| Kd [µM] | SMILES |
| --- | --- |
| < 10 | Cc1c(F)ccc(F)c1-c1c(C(=O)N[C@@H](CC(N)=O)c2cccc(Cl)c2)c[nH]c1C(=O)c1cccc(C2CCCCC2)c1 [I-732] |
| 100 to 200 | Cc1cccc(F)c1-c1[nH]ncc1C(=O)N[C@H](CC(N)=O)c1cc(Cl)cc(Cl)c1 [I-735] |
| < 10 | Cc1cccc(F)c1-c1[nH]ncc1C(=O)N[C@H](CC(N)=O)c1cc(Cl)cc(Cl)c1 [I-736] |
| > 200 | Cc1cc(Cl)cc([C@H](CC(N)=O)NC(=O)c2cn[nH]c2-c2c(C)cccc2F)c1 [I-737] |
| < 10 | Cc1cc(Cl)cc([C@@H](CC(N)=O)NC(=O)c2cn[nH]c2-c2c(C)cccc2F)c1 [I-738] |
| < 10 | Cc1c(F)ccc(F)c1-c1c(C(=O)N[C@@H](CC(N)=O)c2cccc(Cl)c2)c[nH]c1C(=O)c1cccc(C(C)C)c1 [I-739] |
| 10 to 100 | O=C(O)C[C@H](NC(=O)c1cn[nH]c1-c1ccccc1F)c1cccc(Cl)c1 [I-740] |
| < 10 | C[C@H]1CC[C@H](c2[nH]ncc2C(=O)N[C@@H](CC(N)=O)c2cccc(Cl)c2)CC1 [I-741] |
| < 10 | C[C@H]1CC[C@@H](c2[nH]ncc2C(=O)N[C@@H](CC(N)=O)c2cccc(Cl)c2)CC1 [I-742] |
| < 10 | Cc1cccc(F)c1-c1c(C(=O)N[C@@H](CC(N)=O)c2cccc(Cl)c2)c[nH]c1Nc1cc(N2CCCCC2)ccn1 [I-744] |
| 10 to 100 | Cc1cccc(F)c1-c1[nH]ncc1C(=O)N[C@@H](CC(N)=O)c1cc(F)cc(Cl)c1 [I-748] |
| < 10 | Cc1cccc(F)c1-c1[nH]ncc1C(=O)N[C@H](CC(N)=O)c1cc(F)cc(Cl)c1 [I-749] |
| > 200 | COC(=O)C[C@H](NC(=O)c1cn[nH]c1-c1ccccc1F)c1cccc(Cl)c1 [I-757] |
| < 10 | CO/N=C(/c1ccccc1)c1[nH]cc(C(=O)N[C@@H](CC(N)=O)c2cccc(Cl)c2)c1-c1c(F)ccc(F)c1C [I-758] |
| < 10 | Cc1c(F)ccc(F)c1-c1c(C(=O)N[C@@H](CC(N)=O)c2cccc(Cl)c2)c[nH]c1/C(=N/OC(C)C)c1ccccc1 [I-759] |
| > 200 | NC(=O)c1cccc(N2CCC[C@@H](Nc3cc(N4CCOCC4)ccn3)C2)c1 [I-775] |
| > 200 | CN(C)CC[C@H](c1ccc(N2CCC[C@@H](Nc3cc(N4CCOCC4)ccn3)C2)cc1)c1ccccn1 [I-783] |
| > 200 | COC(=O)c1cc(-c2cccc(N3CCC[C@@H](Nc4cc(N5CCOCC5)ccn4)C3)c2)on1 [I-785] |
| < 10 | O=C(N[C@@H](CC(=O)N1CCNCC1)c1cccc(Cl)c1)c1cn[nH]c1-c1ccccc1F [I-787] |

— patent US20260373266A1, “PROTEIN DEGRADERS AND USES THEREOF” (KYMERA THERAPEUTICS, INC., priority 2022, published 2026)
